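A five-concentration, 48-hour dose response in 96-well plates underlies each endpoint, interpolated linearly between surrounding concentrations. The concentration for full growth arrest is given as TGI.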
What was measured:
Assay in all cases: NCI-60 cell line screen, 48 h
[1] = test system: EKVX NSCLC
[2] = test system: HCT-15 colon
[3] = test system: MCF7 breast
[4] = test system: NCI-H23 lung
[5] = test system: NCI-H460 lung
[6] = test system: PC-3 prostate
[7] = test system: SF-295 CNS
[8] = test system: SK-MEL-28 melanoma
[9] = test system: SNB-75 CNS
[10] = test system: UACC-257 melanoma

SMILES | TGI [1] | TGI [2] | TGI [3] | TGI [4] | TGI [5] | TGI [6] | TGI [7] | TGI [8] | TGI [9] | TGI [10]
COC12c3ccccc3-c3ccccc3C1[C@H]1C(=O)OC(=O)[C@H]12 (stereo not given in full) | > 10 µM | > 10 µM | > 10 µM | > 10 µM | > 10 µM | > 10 µM | > 10 µM | > 10 µM | > 10 µM | > 10 µM
COc1ccc(-n2cnc3c(NC(CCSC)C(=O)O)ncnc32)cc1 (stereo not given) | > 100 µM | > 100 µM | > 100 µM | > 100 µM | > 100 µM | > 100 µM | > 100 µM | > 100 µM | > 100 µM | > 100 µM
CC(=O)OCC1OC(n2c(=O)[nH]c(=O)c3sccc32)C(Br)C1OC(C)=O (stereo not given) | > 100 µM | > 100 µM | > 100 µM | > 100 µM | > 100 µM | > 100 µM | > 100 µM | > 100 µM | > 100 µM | > 100 µM
Cc1n[nH]c(=O)n1/N=C/c1ccc([N+](=O)[O-])o1 | 34.3 µM | 26.2 µM | > 100 µM | 32.4 µM | 49.4 µM | > 100 µM | > 100 µM | 28.3 µM | > 100 µM | 27.7 µM
COc1cc(C(c2ccc3c(c2)OCO3)N2C(=O)CCC2C(=O)O)cc(OC)c1OC (stereo not given) | > 100 µM | > 100 µM | > 100 µM | > 100 µM | > 100 µM | > 100 µM | > 100 µM | > 100 µM | > 100 µM | > 100 µM
COC(=O)c1c(OC(C)=O)ccc2c1c1c(OC(C)=O)c3ccccc3c(OC(C)=O)c1n2Cc1ccccc1 | 10.4 µM | 14.7 µM | > 50 µM | 18.3 µM | > 50 µM | 32 µM | 10.9 µM | 33.5 µM | 6.61 µM | > 50 µM
CC(C)(CC(O)C#N)/[N+]([O-])=[N+](\[O-])C(C)(C)CC(O)C#N (stereo not given) | > 100 µM | 38.5 µM | 65.5 µM | 66.8 µM | > 100 µM | > 100 µM | > 100 µM | > 100 µM | 76.2 µM | 58.1 µM
Cc1ccc(/C(O)=C/C(=O)C(=O)NN=C(c2ccccc2)c2ccccc2)cc1 | > 100 µM | > 100 µM | > 100 µM | > 100 µM | > 100 µM | > 100 µM | > 100 µM | > 100 µM | > 100 µM | > 100 µM
Cc1ccc(/C=C2\CCCC(CN3CCCCC3)C2=O)cc1 (stereo not given) | 32.7 µM | 4.3 µM | 2.1 µM | 4.86 µM | 15.9 µM | 5.74 µM | 30.9 µM | 3.22 µM | 17.7 µM | 4.02 µM
N#C/C(=C\c1c[nH]c2ccccc12)C(=O)c1ccc(O)c(O)c1 | > 100 µM | > 100 µM | > 100 µM | > 100 µM | > 100 µM | > 100 µM | 67 µM | > 100 µM | > 100 µM | > 100 µM
CC[C@@H](/C=C\CCC(=O)C[C@H](O)CCC=C(C)C)O[Si](C(C)C)(C(C)C)C(C)C | > 100 µM | > 100 µM | > 100 µM | > 100 µM | > 100 µM | > 100 µM | > 100 µM | > 100 µM | > 100 µM | > 100 µM
c1ccc2c3c([nH]c2c1)C1CCCN1CC3 (stereo not given) | > 10 µM | > 10 µM | > 10 µM | > 10 µM | > 10 µM | > 10 µM | > 10 µM | > 10 µM | > 10 µM | > 10 µM
CC1=NN(C(=O)CSc2nc3ccc(I)cc3c(=O)n2Cc2ccccc2)C(=O)C1 | 79.8 µM | 52.4 µM | 61.3 µM | 43.1 µM | > 100 µM | 49.7 µM | 63.9 µM | > 100 µM | 85.3 µM | 85.4 µM
Brc1ccc(-c2cn3ccncc3n2)cc1 | > 100 µM | > 100 µM | > 100 µM | > 100 µM | > 100 µM | > 100 µM | > 100 µM | > 100 µM | > 100 µM | 85.6 µM
C[C@H]1C=C2[C@@H]3CC(C)(C(=O)O)CC[C@]3(C)CC[C@]2(C)[C@]2(C)CC[C@H]3C(C)(C)[C@@H](OC(=O)c4cccc5c(=O)c6ccccc6[nH]c45)CC[C@]3(C)[C@@H]12 (stereo not given in full) | > 100 µM | > 100 µM | > 100 µM | > 100 µM | > 100 µM | > 100 µM | > 100 µM | > 100 µM | > 100 µM | > 100 µM
OC1(c2ccccc2)CSC2=Nc3ccccc3C3CCN1N23 (stereo not given) | 28.6 µM | 39.1 µM | 46 µM | 79.2 µM | > 100 µM | 29.5 µM | 33.8 µM | 11.3 µM | 25.5 µM | 86.8 µM
O=C(O)CNC(=O)c1c2ccccc2nc2ccccc12 | > 100 µM | > 100 µM | > 100 µM | > 100 µM | > 100 µM | > 100 µM | > 100 µM | > 100 µM | > 100 µM | > 100 µM
